Results from ChEMBL document CHEMBL1127711, “Preparation of a novel series of phosphonate norstatine renin inhibitors” (Bioorg Med Chem Lett, 1994).

What follows are compounds tested against T1, Renin (Homo sapiens, UniProt P00797) (assay: Compound was tested for the inhibition of human plasma renin(Hu Renin)).
T1 sequence (P00797 whole entry): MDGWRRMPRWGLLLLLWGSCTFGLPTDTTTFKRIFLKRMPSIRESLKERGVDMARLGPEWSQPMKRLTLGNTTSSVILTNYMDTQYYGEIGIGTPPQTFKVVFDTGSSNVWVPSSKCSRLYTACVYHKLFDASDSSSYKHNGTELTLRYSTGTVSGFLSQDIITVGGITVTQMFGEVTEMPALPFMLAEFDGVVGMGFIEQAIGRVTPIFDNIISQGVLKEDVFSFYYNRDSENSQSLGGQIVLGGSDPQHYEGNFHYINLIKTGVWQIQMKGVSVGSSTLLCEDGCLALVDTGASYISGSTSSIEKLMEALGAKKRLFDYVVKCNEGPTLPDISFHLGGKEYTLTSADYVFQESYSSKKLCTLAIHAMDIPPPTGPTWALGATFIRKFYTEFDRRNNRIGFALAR
Type: cell-free

SMILES	IC50 [nM]
CCCOP(=O)(OCCC)C(O)[C@H](CC1CCCCC1)NC(=O)[C@H](CSC)NC(=O)[C@H](Cc1ccccc1)NC(=O)N1CCOCC1 (some centres not stated)	60
CSC[C@H](NC(=O)[C@H](Cc1ccccc1)NC(=O)N1CCOCC1)C(=O)N[C@@H](CC1CCCCC1)C(O)P(=O)(OC(C)C)OC(C)C (some centres not stated)	1400
COP(=O)(OC)C(O)[C@H](CC1CCCCC1)NC(=O)[C@H](CCc1cnc[nH]1)NC(=O)[C@H](Cc1ccccc1)NC(=O)N1CCOCC1 (some centres not stated)	190
CSC[C@H](NC(=O)[C@H](Cc1ccccc1)NC(=O)N1CCOCC1)C(=O)N[C@@H](CC1CCCCC1)C(O)P(=O)(OCc1ccccc1)OCc1ccccc1 (some centres not stated)	190
CCCC[C@H](NC(=O)[C@H](Cc1ccccc1)NC(=O)N1CCOCC1)C(=O)N[C@@H](CC1CCCCC1)C(O)P(=O)(OC)OC (some centres not stated)	32
CCOP(=O)(OCC)C(O)[C@H](CC1CCCCC1)NC(=O)[C@H](CSC)NC(=O)[C@H](Cc1ccccc1)NC(=O)N1CCOCC1 (some centres not stated)	25
COP(=O)(OC)C(O)[C@H](CC1CCCCC1)NC(=O)[C@H](CSC)NC(=O)[C@H](Cc1ccccc1)NC(=O)N1CCOCC1 (some centres not stated)	5.8
